Laboratory results published in article PMC5520056, “Cryo-EM structures of the ATP-bound Vps4^E233Q hexamer and its complex with Vta1 at near-atomic resolution” (Nature Communications, 2017).

Biological target: T1, Vps4–Vta1 complex (Saccharomyces cerevisiae, UniProt P52917)
T1 construct: both proteins with N-terminal His6 tag (pET28a), E. coli BL21(DE3); Vps4 hexamer with Vta1 at ~2:1 Vta1/Vps4; four Vta1 CTD dimers modelled; with Vacuolar protein sorting-associated protein VTA1
T1 sequence (P52917 1-437 E233Q): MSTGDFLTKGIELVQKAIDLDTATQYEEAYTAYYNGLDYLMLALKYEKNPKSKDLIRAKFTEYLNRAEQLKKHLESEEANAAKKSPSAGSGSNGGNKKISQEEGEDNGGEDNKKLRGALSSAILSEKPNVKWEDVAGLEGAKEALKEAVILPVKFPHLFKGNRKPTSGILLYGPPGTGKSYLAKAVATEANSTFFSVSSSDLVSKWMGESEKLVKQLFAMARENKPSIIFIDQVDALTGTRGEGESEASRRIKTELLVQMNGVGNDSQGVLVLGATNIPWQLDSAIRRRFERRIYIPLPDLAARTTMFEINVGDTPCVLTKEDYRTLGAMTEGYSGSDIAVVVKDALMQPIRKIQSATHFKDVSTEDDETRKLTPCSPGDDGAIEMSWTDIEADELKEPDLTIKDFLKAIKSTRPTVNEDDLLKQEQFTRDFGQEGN
T1 sequence (Q06263 1-330 partner): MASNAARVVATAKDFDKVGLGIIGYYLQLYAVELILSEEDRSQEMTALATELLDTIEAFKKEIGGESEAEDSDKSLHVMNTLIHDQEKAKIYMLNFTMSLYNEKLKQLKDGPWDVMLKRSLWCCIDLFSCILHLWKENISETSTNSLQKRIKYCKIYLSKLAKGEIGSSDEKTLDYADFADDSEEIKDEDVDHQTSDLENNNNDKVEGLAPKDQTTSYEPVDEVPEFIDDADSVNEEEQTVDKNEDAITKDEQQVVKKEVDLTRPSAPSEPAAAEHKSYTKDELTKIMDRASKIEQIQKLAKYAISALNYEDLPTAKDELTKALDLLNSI
Assay: malachite green phosphate release (ATPase)
Format: biochemical
Conditions: 1 uM Vps4, 5 mM ATP, 2 mM MgCl2, pH 7.5, 37 °C; Vta1 present

## Nc1ncnc2c1ncn2[C@@H]1O[C@H](COP(=O)(O)OP(=O)(O)OP(=O)(O)O)[C@@H](O)[C@H]1O [ATP]
  malachite green phosphate release (ATPase): the ATPase activity of the wild-type Vps4 was increased by twofold in the presence of Vta1
